Activity calls are given as the source filed them. The rule behind the calls is not given here.
Tests used:
[1] = molecular target: DNA polymerase beta (Rattus norvegicus) (UniProt P06766); experiment: (§1) Inhibition of rat DNA polymerase beta
DNA polymerase beta = DNA polymerase beta (Rattus norvegicus, UniProt P06766); experiment: as §1
[2] = molecular target: DNA polymerase beta (Rattus norvegicus) (UniProt P06766); experiment: Activity of rat DNA polymerase beta using variable levels of [3H]TTP substrate by Lineweaver-Burke plot
[3] = molecular target: DNA polymerase beta (Rattus norvegicus) (UniProt P06766); experiment: Activity of rat DNA polymerase beta using variable levels of DNA template primer by Lineweaver-Burke plot

SMILES	Activity [1]	IC50 (DNA polymerase beta) [µM]	Kii [2] [µM]	Kis [2] [µM]	Kii [3] [µM]	Kis [3] [µM]
COC(=O)[C@]1(C)CC[C@]2(C)CC[C@]3(C)C(=CC[C@@H]4[C@@]5(C)CCC(=O)C(C)(C)[C@@H]5CC[C@]43C)[C@@H]2C1	inactive					
CC1(C)[C@H](O)CC[C@]2(C)[C@H]3CC=C4[C@@H]5C[C@](C)(C(=O)O)CC[C@]5(C)CC[C@@]4(C)[C@]3(C)CC[C@@H]12 [KATONIC ACID]		36	24	60	11	4.2
CCN(CC)C(=O)[C@]1(C)CC[C@]2(C)CC[C@]3(C)C(=CC[C@@H]4[C@@]5(C)CCC(=O)C(C)(C)[C@@H]5CC[C@]43C)[C@@H]2C1	inactive					
COC(=O)[C@]1(C)CC[C@]2(C)CC[C@]3(C)C(=CC[C@@H]4[C@@]5(C)CC[C@@H](O)C(C)(C)[C@@H]5CC[C@]43C)[C@@H]2C1	inactive					
C=C(C)[C@@H]1CC[C@]2(C)[C@H](CC=C3[C@@H]4C[C@@](C)(C(=O)O)CC[C@]4(C)CC[C@]32C)[C@@]1(C)CCC(=O)O [KOETJAPIC ACID]		20	11	24	18	5.6
CC(C)(C)NC(=O)[C@]1(C)CC[C@]2(C)CC[C@]3(C)C(=CC[C@@H]4[C@@]5(C)CCC(=O)C(C)(C)[C@@H]5CC[C@]43C)[C@@H]2C1	inactive					
CCOC(=O)[C@]1(C)CC[C@]2(C)CC[C@]3(C)C(=CC[C@@H]4[C@@]5(C)CCC(=O)C(C)(C)[C@@H]5CC[C@]43C)[C@@H]2C1	inactive					
CC1(C)C(=O)CC[C@]2(C)[C@H]3CC=C4[C@@H]5C[C@](C)(C(=O)O)CC[C@]5(C)CC[C@@]4(C)[C@]3(C)CC[C@@H]12		22	9.1	60	50	5.5
CC1(C)/C(=N\OCc2ccccc2)CC[C@]2(C)[C@H]3CC=C4[C@@H]5C[C@](C)(C(=O)O)CC[C@]5(C)CC[C@@]4(C)[C@]3(C)CC[C@@H]12		35	22	69	24	37

The next lines start with the values.

Activity [1]	IC50 (DNA polymerase beta) [µM]	Kii [2] [µM]	Kis [2] [µM]	Kii [3] [µM]	Kis [3] [µM]	SMILES
	36	35	73	35	9.1	CO/N=C1/CC[C@]2(C)[C@H]3CC=C4[C@@H]5C[C@](C)(C(=O)O)CC[C@]5(C)CC[C@@]4(C)[C@]3(C)CC[C@H]2C1(C)C
	16	10	16			CC1(C)/C(=N\O)CC[C@]2(C)[C@H]3CC=C4[C@@H]5C[C@](C)(C(=O)O)CC[C@]5(C)CC[C@@]4(C)[C@]3(C)CC[C@@H]12
inactive						CCCCNC(=O)[C@]1(C)CC[C@]2(C)CC[C@]3(C)C(=CC[C@@H]4[C@@]5(C)CCC(=O)C(C)(C)[C@@H]5CC[C@]43C)[C@@H]2C1
inactive						CC1(C)C(=O)CC[C@]2(C)[C@H]3CC=C4[C@@H]5C[C@](C)(C(N)=O)CC[C@]5(C)CC[C@@]4(C)[C@]3(C)CC[C@@H]12

Source: ChEMBL document CHEMBL1144085, “DNA polymerase beta inhibitors from Sandoricum koetjape” (J Nat Prod, 1999)
